Paper PMC8241168, “Cholesterol–PEG comodified poly (N-butyl) cyanoacrylate nanoparticles for brain delivery: in vitro and in vivo evaluations” (Drug Delivery, 2017)

Assays:
bEnd.3 cells = experiment: Uptake of C6 CLS-PEG NPs by bEnd.3 cells; assay type: cell-based, mouse; conditions: 20–100 μg/mL, 37 °C, 30 min to 4 h
Description: BEnd. 3 cells were seeded into a 6-well plate and cultured for 24 h. Then, the medium was replaced with different concentrations (20–100 μg/mL) of free C6 or CLS-PEG NPs encapsulated with C6, and incubated at 37 °C for 2 h. To study the effects of incubation time on CLS-PEG NPs uptake, the CLS-PEG NPs loaded C6 (50 μg/mL) and the free C6 solution were added into the wells, and the plate was incubated at 37 °C for 30 min, 1 h, 2 h, or 4 h. At the end of the experiment, the cells were washed with ice-cold PBS three times. Subsequently, the cells were lysed with cell lysate (Beijing Saichi Biotechnology Co., Ltd., China). The quantitative measurement of intracellular C6 in bEnd.3 cell lysates was analyzed by a fluorescence microplate reader as described earlier. Total cell protein concentrations of the bEnd.3 cells were determined using a BCA protein assay (Beijing Kangwei Century Biotechnology Co., Ltd., China). The uptake of CLS-PEG NPs by bEnd.3 cells was calculated and expressed as the amount of CLS-PEG NPs (μg) taken up per mg of cell protein.

[1] = Pharmacokinetic study, plasma C6 after IV administration; assay type: in vivo; conditions: rats, IV 0.5 mg/kg
Description: Wistar rats (180–200 g) were obtained from the Institute of Laboratory Animal Science, Chinese Academy of Medical Sciences, Beijing, China, and all animal experiments were performed in accordance with the regulations of the Animal Care and Use Committee of the Chinese Academy of Medical Sciences. […] A standard diet of food and water was supplied ad libitum during the experiments. A polyethylene catheter (Portex, Hythe, UK) was inserted through the right jugular veins of all rats one day prior to the pharmacokinetic experiment, and flushed with 100 U/mL heparin in 0.9% saline. […] Subsequently, 100 μL of plasma was obtained by centrifugation at 5000 rpm for 7 min at 0 °C, and the serum was collected. The measurement of C6 in the samples was analyzed by a fluorescence microplate reader as described earlier.

[2] = Tissue distribution studies after IV administration; assay type: in vivo, rats; conditions: IV 0.5 mg/kg; for Tmax / AUC0-t / Cmax: C6, rats; for AUC0-t / Cmax: n = 3
Description: Wistar rats (180–200 g) were obtained from the Institute of Laboratory Animal Science, Chinese Academy of Medical Sciences, Beijing, China, and all animal experiments were performed in accordance with the regulations of the Animal Care and Use Committee of the Chinese Academy of Medical Sciences. […] A standard diet of food and water was supplied ad libitum during the experiments. […] The samples were stored at −20 °C until further analysis. The drug-targeting index (DTI) is considered an important parameter for tissue targeting efficiency, and was calculated using the following formula: DTI=AUCx/AUCp(NPs)/AUCx/AUCP(Free drug) Where “AUCx” is the AUC of tissue x, and “AUCp” is the AUC of the plasma.

[3] = Specificity to the brain, confocal laser scanning microscopy of brain sections; assay type: in vivo; conditions: rats, IV, 0.5 h after dosing
Description: Subsequently, the brain tissues were removed, washed with PBS, and fixed in 4% formaldehyde solution. After snap freezing in liquid nitrogen, the samples were embedded in […]. compound (Sakura Finetechnical, Tokyo, Japan) and cut into thin sections (10 μm). The slices were stained for cell nuclei with DAPI for 15 min in the dark and then washed three times with cold PBS. The sample was monitored by confocal laser scanning microscopy (Zeiss LSM710, Göttingen, Germany). ZEN Image Software 2012 was used to perform the image recording and image analysis. The image included 512 × 512 pixels measuring 2.77 × 2.77 μm^2.

AUC0-t ([1]; C6 in plasma, n = 6): 15.8 ± 2.4 µg·min/mL
AUC0-∞ ([1]; C6 in plasma, n = 6): 16.0 ± 2.3 µg·min/mL
C0 ([1]; C6 in plasma, n = 6): 0.8284 ± 0.139 µg/mL
CL ([1]; C6 in plasma, n = 6): 6.4 ± 0.9 mL/min
Vd, λz ([1]; C6 in plasma, n = 6): 0.6 ± 0.3 L
t1/2, λz ([1]; C6 in plasma, n = 6): 60.1 ± 24.0 min
time after injection at which C6 was undetectable in plasma [1]: 4 h
Tmax ([2]; Brain): 30 min
AUC0-t ([2]; Brain): 3.84 ± 0.21 µg·min/mL
Cmax ([2]; Brain): 45.64 ± 2.25 ng/g
Tmax ([2]; Heart): 15 min
AUC0-t ([2]; Heart): 8.45 ± 0.93 µg·min/mL
Cmax ([2]; Heart): 113.89 ± 16.48 ng/g
Tmax ([2]; Kidney): 30 min
AUC0-t ([2]; Kidney): 2.56 ± 0.44 µg·min/mL
Cmax ([2]; Kidney): 22.20 ± 1.91 ng/g
Tmax ([2]; Liver): 15 min
AUC0-t ([2]; Liver): 141.71 ± 13.25 µg·min/mL
Cmax ([2]; Liver): 2685.53 ± 356.67 ng/g
Tmax ([2]; Lung): 30 min
AUC0-t ([2]; Lung): 63.88 ± 5.62 µg·min/mL
Cmax ([2]; Lung): 900.02 ± 67.86 ng/g
Tmax ([2]; Spleen): 15 min
AUC0-t ([2]; Spleen): 271.02 ± 16.03 µg·min/mL
Cmax ([2]; Spleen): 3848.83 ± 339.27 ng/g
distribution of C6 in the brain ([2]; rats): very little distribution in the brain
C6 fluorescent signal in the brain [3]: too weak to be distinguished
SMILES: CCN(CC)c1ccc2cc(-c3nc4ccccc4s3)c(=O)oc2c1 [Free drug, coumarin-6]
cellular uptake by bEnd.3 cells (bEnd.3 cells): only minimally entered the cells
